# Experimental data: ChEMBL document CHEMBL1649270, “ST-246 inhibits in vivo poxvirus dissemination, virus shedding, and systemic disease manifestation” (2009)
# The source made the active and inactive calls. The calls are words filed in the database; no cut-off is given here.
# Experiments:
# Vaccinia virus WR [1] = assay: Antiviral activity against Vaccinia virus WR ATCC VR-1354 infected through percutaneous route in BALB/c mouse assessed as inhibition of virus dissemination in blood at 100 mg/kg, po qd for 1 day by RT-PCR analysis; assay type: functional, organism-based; set-up: dose 100 mg/kg
# Vaccinia virus WR [2] = assay: Antiviral activity against Vaccinia virus WR ATCC VR-1354 infected through percutaneous route in BALB/c mouse assessed as reduction of viral load in blood at 100 mg/kg, po qd measured after 13 days postinfection by RT-PCR analysis relative to control; assay type: functional, organism-based; set-up: dose 100 mg/kg
# Vaccinia virus WR [3] = assay: Antiviral activity against Vaccinia virus WR ATCC VR-1354 infected through percutaneous route in BALB/c mouse assessed as reduction of viral load in brain at 100 mg/kg, po qd measured after 3 days postinfection by RT-PCR analysis relative to control; assay type: functional
# Vaccinia virus WR [4] = assay: Antiviral activity against Vaccinia virus WR ATCC VR-1354 infected through percutaneous route in BALB/c mouse assessed as reduction of viral load in lungs at 100 mg/kg, po qd measured after 3 days postinfection by RT-PCR analysis relative to control; assay type: functional
# Vaccinia virus WR [5] = assay: Antiviral activity against Vaccinia virus WR ATCC VR-1354 infected through intravenous route in BALB/c mouse assessed as protection against virus-induced systemic disease symptoms at 100 mg/kg, po qd measured after 9 days postinfection; assay type: functional, organism-based; set-up: dose 100 mg/kg
# Vaccinia virus WR [6] = assay: Antiviral activity against Vaccinia virus WR ATCC VR-1354 infected through dermal scarification route in ACAM2000 vaccinated BALB/c mouse assessed as reduction of swab virus titers at 100 mg/kg, po qd measured after 7 days postinfection by RT-PCR analysis relative to control; assay type: functional
# Vaccinia virus WR [7] = assay: Antiviral activity against Vaccinia virus WR ATCC VR-1354 infected through percutaneous route in BALB/c mouse assessed as reduction of viral load in spleen at 100 mg/kg, po qd measured after 3 days postinfection by RT-PCR analysis relative to control; assay type: functional
# Vaccinia virus WR [8] = assay: Antiviral activity against Vaccinia virus WR ATCC VR-1354 infected through intraperitoneal route in BALB/c mouse assessed as reduction of viral load in brain at 100 mg/kg, po qd measured after 3 days postinfection by RT-PCR analysis relative to control; assay type: functional, organism-based; set-up: dose 100 mg/kg
# Vaccinia virus WR [9] = assay: Antiviral activity against Vaccinia virus WR ATCC VR-1354 infected through intravenous route in BALB/c mouse assessed as reduction of viral load in blood at 100 mg/kg, po qd measured after 14 days postinfection by RT-PCR analysis relative to control; assay type: functional, organism-based; set-up: dose 100 mg/kg
# Vaccinia virus WR [10] = assay: Antiviral activity against Vaccinia virus WR ATCC VR-1354 infected through percutaneous route in BALB/c mouse assessed as protection against virus-induced death at 100 mg/kg, po qd administered 4 days after postinfection measured on day 6; assay type: functional, organism-based; set-up: dose 100 mg/kg
# Vaccinia virus WR [11] = assay: Antiviral activity against Vaccinia virus WR ATCC VR-1354 infected through percutaneous route in BALB/c mouse assessed as inhibition of virus dissemination in spleen at 100 mg/kg, po qd for 1 day by RT-PCR analysis relative to control; assay type: functional
# Vaccinia virus WR [12] = assay: Antiviral activity against Vaccinia virus WR ATCC VR-1354 infected through intraperitoneal route in BALB/c mouse assessed as reduction of viral load in blood at 100 mg/kg, po qd measured after 5 days postinfection by RT-PCR analysis relative to control; assay type: functional, organism-based; set-up: dose 100 mg/kg
# Vaccinia virus WR [13] = assay: Antiviral activity against Vaccinia virus WR ATCC VR-1354 infected through percutaneous route in BALB/c mouse assessed as reduction of viral load in brain at 100 mg/kg, po qd measured after 7 days postinfection by RT-PCR analysis relative to control; assay type: functional, organism-based; set-up: dose 100 mg/kg
# Vaccinia virus WR [14] = assay: Antiviral activity against Vaccinia virus WR ATCC VR-1354 infected through subcutaneous route in BALB/c mouse assessed as protection against virus-induced satellite lesion formation on tails at 100 mg/kg, po qd measured after 6 days postinfection; assay type: functional, organism-based; set-up: dose 100 mg/kg
# Vaccinia virus WR [15] = assay: Antiviral activity against Vaccinia virus WR ATCC VR-1354 infected through percutaneous route in BALB/c mouse assessed as protection against virus-induced systemic disease symptoms at 100 mg/kg, po qd measured after 6 days postinfection; assay type: functional, organism-based; set-up: dose 100 mg/kg
# Vaccinia virus WR [16] = assay: Antiviral activity against Vaccinia virus WR ATCC VR-1354 infected through percutaneous route in BALB/c mouse assessed as reduction of viral load in spleen at 100 mg/kg, po qd for 1 day by RT-PCR analysis relative to control; assay type: functional
# Vaccinia virus WR [17] = assay: Antiviral activity against Vaccinia virus WR ATCC VR-1354 infected through percutaneous route in BALB/c mouse assessed as inhibition of virus dissemination in brain at 100 mg/kg, po qd for 1 day by RT-PCR analysis; assay type: functional, organism-based; set-up: dose 100 mg/kg
# Vaccinia virus WR [18] = assay: (§1) Antiviral activity against Vaccinia virus WR ATCC VR-1354 in african green monkey BSC-40 cells infected with 7 day postinfection BAL fluid from 100 mg/kg, po qd compound treated BALB/c mouse infected through percutaneous route assessed as reduction of viral attachment to cells by plaque titration assay; assay type: functional
# Vaccinia virus WR [19] = assay: Antiviral activity against Vaccinia virus WR ATCC VR-1354 infected through percutaneous route in BALB/c mouse assessed as reduction of viral load in liver at 100 mg/kg, po qd measured after 13 days postinfection by RT-PCR analysis relative to control; assay type: functional, organism-based; set-up: dose 100 mg/kg
# Vaccinia virus WR [20] = assay: Antiviral activity against Vaccinia virus WR ATCC VR-1354 infected through percutaneous route in BALB/c mouse assessed as inhibition of virus dissemination in spleen at 100 mg/kg, po qd for 3 days by RT-PCR analysis relative to control; assay type: functional
# Vaccinia virus WR [21] = assay: Antiviral activity against Vaccinia virus WR ATCC VR-1354 infected through dermal scarification route in ACAM2000 vaccinated BALB/c mouse assessed as reduction of swab virus titers at 100 mg/kg, po qd measured after 5 days postinfection by RT-PCR analysis relative to control; assay type: functional
# Vaccinia virus WR [22] = assay: Antiviral activity against Vaccinia virus WR ATCC VR-1354 infected through percutaneous route in BALB/c mouse assessed as protection against virus-induced satellite lesion formation on tails at 100 mg/kg, po qd measured after 6 days postinfection; assay type: functional, organism-based; set-up: dose 100 mg/kg
# Vaccinia virus WR [23] = assay: Antiviral activity against Vaccinia virus WR ATCC VR-1354 infected through percutaneous route in BALB/c mouse assessed as reduction of viral load in spleen at 100 mg/kg, po qd measured after 7 days postinfection by RT-PCR analysis relative to control; assay type: functional, organism-based; set-up: dose 100 mg/kg
# Vaccinia virus WR [24] = assay: as §1, with “postinfection nasal” for “postinfection BAL”; assay type: functional
# Vaccinia virus WR [25] = assay: Antiviral activity against Vaccinia virus WR ATCC VR-1354 infected through intravenous route in BALB/c mouse assessed as protection against virus-induced conjunctivitis in mouse eyes at 100 mg/kg, po qd measured after 6 days postinfection; assay type: functional, organism-based; set-up: dose 100 mg/kg
# Vaccinia virus WR [26] = assay: Antiviral activity against Vaccinia virus WR ATCC VR-1354 infected through intravenous route in BALB/c mouse assessed as reduction of viral load in lung at 100 mg/kg, po qd measured after 14 days postinfection by RT-PCR analysis relative to control; assay type: functional, organism-based; set-up: dose 100 mg/kg
# Vaccinia virus WR [27] = assay: Antiviral activity against Vaccinia virus WR ATCC VR-1354 infected through dermal scarification route in BALB/c mouse assessed as protection against virus-induced conjunctivitis in mouse eyes at 100 mg/kg, po qd measured after 6 days postinfection; assay type: functional, organism-based; set-up: dose 100 mg/kg
compound,measurement,setting,value
O=C(NN1C(=O)[C@@H]2[C@@H]3C=C[C@@H]([C@H]4C[C@@H]34)[C@@H]2C1=O)c1ccc(C(F)(F)F)cc1 [TECOVIRIMAT],Activity,Vaccinia virus WR [1],inactive
same,Activity,Vaccinia virus WR [2],Active
same,fold change (FC),Vaccinia virus WR [3],1.78
same,fold change (FC),Vaccinia virus WR [4],4
same,Activity,Vaccinia virus WR [5],Active
same,fold change (FC),Vaccinia virus WR [6],53
same,fold change (FC),Vaccinia virus WR [7],300
same,Activity,Vaccinia virus WR [8],inactive
same,Activity,Vaccinia virus WR [9],Active
same,Activity,Vaccinia virus WR [10],inactive
same,fold change (FC),Vaccinia virus WR [11],17
same,Activity,Vaccinia virus WR [12],Active
same,Activity,Vaccinia virus WR [13],Active
same,Activity,Vaccinia virus WR [14],Active
same,Activity,Vaccinia virus WR [15],Active
same,fold change (FC),Vaccinia virus WR [16],18
same,Activity,Vaccinia virus WR [17],inactive
same,fold change (FC),Vaccinia virus WR [18],528
same,Activity,Vaccinia virus WR [19],Active
same,fold change (FC),Vaccinia virus WR [20],85
same,fold change (FC),Vaccinia virus WR [21],71
same,Activity,Vaccinia virus WR [22],Active
same,Activity,Vaccinia virus WR [23],Active
same,fold change (FC),Vaccinia virus WR [24],22
same,Activity,Vaccinia virus WR [25],Active
same,Activity,Vaccinia virus WR [26],Active
same,Activity,Vaccinia virus WR [27],Active
